± gives the expanded uncertainty stated by the source.
Experiments:
[1] = 101 kPa, Liquid
[2] = refractive index (Na D-line) (dimensionless); conditions: 101.33 kPa, Liquid
[3] = xn = mol fraction of the nth substance listed; conditions: 101 kPa, Liquid, x1 = 1

| mass density ([1]; 298.15 K) | mass density ([1]; 303.15 K) | mass density ([1]; 308.15 K) | mass density ([1]; 313.15 K) | mass density ([1]; 318.15 K) | refractive index ([2]; 298.15 K) | refractive index ([2]; 303.15 K) | refractive index ([2]; 308.15 K) | refractive index ([2]; 313.15 K) | refractive index ([2]; 318.15 K) | mass density ([3]; 298.15 K) | mass density ([3]; 303.15 K) | mass density ([3]; 308.15 K) | mass density ([3]; 313.15 K) | mass density ([3]; 318.15 K) | Structure (SMILES) |
| --- | --- | --- | --- | --- | --- | --- | --- | --- | --- | --- | --- | --- | --- | --- | --- |
| 873.6 ± 2.5 kg/m3 | 870.8 ± 2.6 kg/m3 | 865.7 ± 2.7 kg/m3 | 861 ± 2.9 kg/m3 | 856.3 ± 3 kg/m3 | 1.4979 ± 0.0019 | 1.4962 ± 0.0019 | 1.4944 ± 0.0019 | 1.4929 ± 0.0019 | 1.4911 ± 0.0019 |  |  |  |  |  | c1ccccc1 [benzene] |
|  |  |  |  |  |  |  |  |  |  | 873.6 ± 2.5 kg/m3 | 870.8 ± 2.6 kg/m3 | 865.7 ± 2.7 kg/m3 | 861 ± 2.9 kg/m3 | 856.3 ± 3 kg/m3 | c1ccccc1 [benzene] + CCCCN(CCCC)CCCC |
|  |  |  |  |  |  |  |  |  |  | 873.6 ± 2.5 kg/m3 | 870.8 ± 2.6 kg/m3 | 865.7 ± 2.7 kg/m3 | 861 ± 2.9 kg/m3 | 856.3 ± 3 kg/m3 | c1ccccc1 [benzene] + CCN(CC)CC |
| 774.3 ± 2.1 kg/m3 | 770.8 ± 2.3 kg/m3 | 767.2 ± 2.4 kg/m3 | 763.6 ± 2.5 kg/m3 | 759.8 ± 2.6 kg/m3 | 1.4274 ± 0.0019 | 1.4259 ± 0.0019 | 1.4231 ± 0.0019 | 1.421 ± 0.0019 | 1.4188 ± 0.0019 |  |  |  |  |  | CCCCN(CCCC)CCCC [tributylamine] |
| 723.4 ± 1.9 kg/m3 | 717.9 ± 2.1 kg/m3 | 712.9 ± 2.2 kg/m3 | 708.3 ± 2.3 kg/m3 | 701.6 ± 2.4 kg/m3 | 1.4011 ± 0.0019 | 1.3983 ± 0.0019 | 1.395 ± 0.0019 | 1.3928 ± 0.0019 | 1.3898 ± 0.0019 |  |  |  |  |  | CCN(CC)CC [triethylamine] |

Reference: the NIST ThermoML archive (doi:10.1007/s10765-006-0095-5)
